Point of comparison: `COc1ccccc1N(CC(=O)OC(C)(C)C)C(=O)CN1C(=O)c2ccccc2C1=O`, melting point 144 °C. Against it:
- Cc1nc(-n2cc(CCCc3ccccc3)nn2)sc1C(=O)NCc1ccc(F)c(F)c1 — lower, 81 to 84 °C
- COc1cc2c(cc1OC)-c1c(Cl)nc3ccccc3c1C2=O — lower, 132 to 133 °C
- CCOC(=O)C1=C(Nc2ccc(C(=O)OCC)cc2)OCC1=O — higher, 152 to 153 °C
- CC(C)C[C@H](NC(=O)c1ccc2c(c1)Nc1ccccc1S2)C(=O)N[C@H]1CCOC1OC(=O)N1CCOCC1 (stereo not given in full) — higher, 165 to 167 °C
- CC(C)(C)OC(=O)N1CC[C@@H](NC(=O)c2ccc(-n3cc4ccccc4n3)cc2)C1 — higher, 211 to 212 °C
- CCC(CC)CNC(=O)c1ccc2cccc(Cc3ccc(C(=O)NS(=O)(=O)c4ccccc4C)cc3OC)c2c1 — lower, 126 to 128 °C
- Nc1c(NCc2ccccc2F)ccnc1Cl — higher, 181 to 187 °C
- CC(C)C12COc3cc(Cl)ccc3C1=NN(C(=O)Nc1ccc(C(F)(F)F)cc1)C2 (stereo not given) — higher, 150 to 152 °C
- COc1cc(N2CCC(N3CCN(C)CC3)CC2)ccc1Nc1ncc2cc3ccccc3n2n1 — higher, 176 to 179 °C
- O=C(O)/C(=N\OCF)c1nsc(NC(c2ccccc2)(c2ccccc2)c2ccccc2)n1 — not separable, 144 to 146 °C
- CN(C)S(=O)(=O)OCCOc1ccc(-n2ccnc2)cc1 — lower, 120 to 123 °C
- C=C(C)c1cn(C2OC(CO)C(O)C2O)c(=O)[nH]c1=O (stereo not given) — higher, 212 to 215 °C
- O=C(O)c1ccc(-c2ccc(Cl)s2)nc1 — higher, > 260 °C
- CCC(=O)N(C)c1cccc(C(=O)C=CN(C)C)c1 — higher, 148 to 149 °C
- CC(C)C(=O)NN(C)C — lower, 94 to 96 °C
- O=C(NCCSCc1cccc(Br)c1)c1c(Cl)cccc1Cl — lower, 74 to 76 °C
- NC(=O)c1ccc(-c2ccnc(C(=O)N(O)Cc3ccccc3)c2)cc1 — higher, 155 to 160 °C
- COc1ccc(C(=O)Nc2c(Cl)cncc2Cl)cc1SC1CCCC1 — higher, 198 °C
- C=CCC1C(=O)N(Cc2ccccc2)c2ccccc2N(C(=O)CN2C(=O)c3ccccc3C2=O)C1C (stereo not given) — higher, 218 to 219 °C
- Oc1ccc(-c2n[nH]c3c2Cc2ccccc2-3)cc1 — higher, 266 to 268 °C
- COc1ccccc1COC(=O)C(O)CNCCc1ccc(OC)c(OC)c1 (stereo not given) — lower, 79.5 to 82.5 °C
- CCC(OC(C)=O)c1ccc(Cl)c2nc3n(c12)CCCN3c1ccc(N(C)C)nc1C (stereo not given) — higher, 165 to 166 °C
- COc1cc(OC)c(-c2cn[nH]c2)cc1C=CC(=O)c1ccc(C(=O)O)cc1 — higher, > 250 °C
- NC(=O)c1c(I)cc(I)c(C(N)=O)c1I — higher, 245 to 248 °C
- Nc1nc(NCCc2ccc(C=CC3CCCCC3)cc2)nc2c1ncn2C1OC(CO)C(O)C1O (stereo not given) — higher, 161 to 164 °C
- CC1CC(C)CN(CCNc2ccnc3cc(Cl)ccc23)C1 (stereo not given) — lower, 142 to 143 °C
- C=C(C)c1cc(C(=O)OC)c(OCc2ccccc2)cc1OCc1ccccc1 — lower, 92 to 94 °C
- CCn1cc(C(=O)O)c(=O)c2cc(C=NOCC(=O)O)sc21 — higher, 249 to 250 °C
- C=CCOCc1ccc(-c2ncccc2S(=O)(=O)Nc2ncc(C)nc2OC)cc1 — lower, 72 to 76 °C
- Cc1ccc(S(=O)(=O)C2=CC3CCC2N3C(=O)OC(C)(C)C)cc1 (stereo not given) — not separable, 144 to 147 °C
- COc1ccc(COCc2nc(C(C)C)c(Sc3cc(Cl)cc(Cl)c3)n2CC(C)=O)cc1 — lower, 87 to 90 °C
- CCCCCC(=O)OCC(=O)C1CC2c3cccc4[nH]cc(c34)CC2N(C)C1 (stereo not given) — lower, 135 to 137 °C
- NS(=O)(=O)c1ccc(S(=O)(=O)N2CCc3cccc(-c4ccncc4)c32)cc1 — higher, 242 to 243 °C
- Cc1c(C(=O)O)cnn1CC(F)(F)F — higher, 188 to 190 °C
- CC1(C)[C@H](C(=O)OCc2csc(Oc3ccccc3)n2)[C@@H]1C=C1CCSC1=O — lower, 78 °C
- O=C(Oc1ccc(C(=O)OCc2ccccc2)cc1)C(=O)Oc1ccc(C(=O)OCc2ccccc2)cc1 — lower, 106 to 108 °C
- Cc1cccc(CCN2CCC[C@H](C(C#N)(c3ccccc3)c3ccccc3)C2)c1 — higher, 149 to 150 °C
- CN1CCN(C2=Nc3cc(F)ccc3Nc3nn(C)nc32)CC1 — higher, 195 to 197 °C
- COc1ccc(CCNc2nc(Cl)ccc2[N+](=O)[O-])cc1OC — lower, 132 to 133 °C
- Cc1ccc2oc(-c3ccccc3)nc2n1 — higher, 148 to 149 °C
- Cc1nc(C23CC4CC(CC(C4)C2)C3)oc1COC(=O)C(C)(C)O — lower, 68 to 70 °C
- Cc1cc(OC2CN(C(=O)c3nnc(-c4ccccc4)o3)C2)ccc1CN1CCC(C)(CO)CC1 — higher, 167 °C
- Nc1cccc(-n2cnc3c([N+](=O)[O-])cccc32)c1 — lower, 105 to 110 °C
- O=C(Nc1nc(-c2ccccc2)cs1)c1ccccc1C(c1ccc(O)cc1)c1ccc(O)cc1 — higher, 291 to 292 °C
- Cc1ccccc1-c1cc2cnc(N)nc2nc1N — higher, 300 to 302 °C
- CCCCNC(=O)Oc1ccc(N=C=S)cc1 — lower, 99 to 102 °C
- N=C(NCc1ccccc1)NN=Cc1c(Cl)cccc1Cl — lower, 70 to 80 °C
- CN(C)Cc1ccc(CSCCNc2ncc(N)c(=O)[nH]2)o1 — lower, 127 to 132 °C
- CCc1cn(C)c2cc(-c3ccccc3Cl)c3c(c12)C(=O)NC3=O — higher, 230 to 233 °C
- Cc1c(-c2ccccc2)noc1-c1ccccc1C(=O)O — higher, 159 to 161 °C
- O=c1nc(C2CC2)c2cc(-c3cccc(Cl)c3)ccc2[nH]1 — higher, 189 to 190 °C
- COCCNC(=O)Nc1nc2cc(OS(=O)(=O)c3c(C)cc(C)cc3C)ccc2[nH]1 — lower, 140 °C
- COc1ccc2c(c1)C(=O)C(=Cc1ccncc1)CO2 — higher, 170 to 172 °C
- COc1ccc(C2=C(N)c3cc(OC)ccc3C2=O)cc1 — higher, 213 °C
- Cc1sc(-c2ccc([N+](=O)[O-])cc2)nc1O — higher, 244 to 248 °C
- C=CCn1c(=O)c2[nH]c(C34CC5CC(CC3C5)C4)nc2n(CCC)c1=O — higher, 191 to 192 °C
- COCCOc1cccc(-c2cncc(C#N)c2Nc2ccc3[nH]ccc3c2C)c1 — higher, 158 to 160 °C
- COCc1nn(C)c(O)c1C(=O)c1ccc(S(C)(=O)=O)c(COC)c1C — lower, 100 to 104 °C
- CCCCCCC(C)(C)c1ccc(C2CCCNC2)c(O)c1 (stereo not given) — lower, 138 to 140 °C
- Cc1ccc(S(=O)(=O)N(c2ccc(C#N)cc2[N+](=O)[O-])C(C)C)cc1 — lower, 125 to 126 °C
- COc1ccc(-c2cccc(Cl)c2)cc1Cn1cncn1 — lower, 78.2 to 78.4 °C
- COC1CN(S(=O)(=O)c2ccc(Cl)c(C(=O)O)c2)CCC1O (stereo not given) — higher, 170 to 174 °C
- CCCC[C@H](F)C(=O)N[C@@H](C)c1ccc([N+](=O)[O-])cc1 — lower, 84.5 to 86.5 °C
- CCOC(=O)N1C=CC(c2c(-c3ccc(OC)cc3)nc3n2CCC3)C=C1 — lower, 116 to 118 °C
- CC12CCC3=C(CCc4cc(O)ccc43)C1CCC2=O (stereo not given) — higher, 225 to 227 °C
- CCCCCCCCCCC(O)c1ccc2oc([N+](=O)[O-])c(-c3ccccc3)c2c1 (stereo not given) — lower, 84 to 85 °C
- COc1cccc2c3c(n(C)c12)SCCC3=O — lower, 106 to 108 °C
- Cc1cccc2c(Nc3ccc(OCCN(CCCl)CCCl)cc3)c3cccc(C(=O)NCCN(C)C)c3nc12 — higher, 185 to 186 °C
- CCn1cc(C(=O)O)c(=O)c2cc(F)c(N3CCNC(c4ccc(C)o4)C3)cc21 (stereo not given) — higher, 186 to 188 °C
- OC1(c2ccc(-c3ccccn3)cc2)CN2CCC1CC2 (stereo not given) — higher, 237 to 238 °C
- Cc1ccc(C2c3c(C)c(NCc4ccc(F)cc4)c(C)c(C)c3OC2(C)C)cc1 (stereo not given) — lower, 92 to 94 °C
- NC(=O)c1c[nH]c2c1ccc1c3ccccc3[nH]c12 — higher, > 300 °C
- CSc1ccc(C=CC(N)=NO)s1 — lower, 70 to 71 °C
- COc1cc2ccc(-c3ccc(C(=O)O)cc3)cc2cc1C(C)(C)C — higher, 283 °C
- N#Cc1cc(C(=O)NCc2cccc([N+](=O)[O-])c2)c(OCC(=O)O)cc1F — higher, 179 to 180 °C
- Fc1ccc(-c2cc(C(C(F)(F)F)C(F)(F)F)[nH]c2-c2ccc(F)cc2)cc1 — lower, 123 to 124 °C
- CC(O)(C(O)CI)C(O)CI (stereo not given) — lower, 105 to 106 °C
- Cc1c(C)n(CC2CCCCC2)c2c(OCc3ccc(F)cc3)nncc12 — lower, 108 to 109 °C
- Cc1c(NC(=O)CC(C)(C)C)cc2c(c1C)OCC2c1ccc(C(C)C)cc1 (stereo not given) — higher, 177 to 178 °C
- CNc1cccc(C#CCCn2nc3ccccc3n2)n1 — higher, 150 to 154 °C
- O=C(O)c1cn(CCCc2ccccc2)c2cc(C3CC3)nn2c1=O — lower, 95 to 100 °C
- NC(=S)c1cc(F)c2ncc(C(=O)NCc3ccc(Cl)cc3)c(O)c2c1 — higher, 247 to 248 °C
- Cn1c(-c2ccc(C(=O)O)cc2)cc2cc3c(cc21)C(C)(C)CCC3(C)C — higher, 288 to 289 °C
- CCc1cccc2c(C(C)=CC(=O)O)cc(OC)c(O)c12 — lower, 114 to 115 °C
- CC1(C)COC(=O)N1c1nc(-c2ccc(C#N)cc2)c(F)s1 — higher, 177 to 178 °C
- NC(=S)Nc1ccc(CCNCc2cccc(Cl)c2)cc1 — lower, 132 to 134 °C
- CC(CSC(=S)N(C)C)[N+](=O)[O-] (stereo not given) — lower, 38.5 to 41 °C
- CC(=O)N1CCC2(CC1)CC(=O)c1cc(S(C)(=O)=O)ccc1O2 — lower, 105 to 110 °C
- O=C1c2ccccc2CN1CCCOc1ccncc1 — lower, 70 to 71 °C
- Cc1cccc(-c2nc(N)sc2-c2ccnc(-c3ccc(C(=O)N4CCOCC4)cc3)c2)n1 — higher, 158 to 160 °C
- CCN(CC)C(=O)n1ccc(S(=O)(=O)c2ccccc2OC)n1 — lower, 67 to 68 °C
- CC1(CSc2ccc(N)c([N+](=O)[O-])c2)CC1(Cl)Cl (stereo not given) — lower, 76 to 78 °C
- COC(=O)C=C1NCC(CO)OC1=O (stereo not given) — lower, 112 to 114 °C
- CCCCn1c(=O)c2cn(S(=O)(=O)CCCCl)nc2n(CCCC)c1=O — lower, 102 to 103 °C
- CCCCN1CCc2ccccc2C1CNC(=O)c1cc(OC)c(OC)c(OC)c1 (stereo not given) — lower, 81 to 83 °C
- Cc1ccc(CC(N)=NO)cc1C — lower, 59 to 60 °C
- CC(C)(C)OC(=O)NCCCn1c2c(c3ccc(NC(=O)C(=O)O)cc3c1=O)C(=O)c1ccccc1-2 — higher, 267 to 268 °C
- CN(C)c1nc2sc3c(NCCCN4CCCC4=O)ncnc3c2c2c1CC(C)(C)C2 — higher, 184 to 186 °C
- COCCOc1ccc(CCCNS(=O)(=O)Cc2ccccc2)c(Oc2ncc(C(F)(F)F)cc2Cl)c1 — lower, 97 to 100 °C
